Assay results from patent US20220257569A1, “INDOLE-OXADIAZOLE COMPOUNDS AND THEIR THERAPEUTIC USE” (THE GOVERNING COUNCIL OF THE UNIVERSITY OF TORONTO, priority 2018, published 2022).

Columns and labels:
DATKO mice = test: Open field test in DATKO mice and WT littermates; format: in vivo; details: 10 mg/kg; for Locomotor Activity (total distance traveled) / Stereotypy (total stereotypic movements) / Vertical Activity (total): mean±SEM
Excerpt: DAT1/SLC6A3 gene polymorphism associations have been identified in various psychiatric disorders, including ADHD, BD and SCZ. Also, in line with reduced functioning of the dopamine transporter (DAT) in BD patients, mice without functioning DAT display behavioural abnormalities that model mania observed in BD and that mimic positive symptoms in SCZ. These mice are accepted as a model for assessing the effects of novel small molecules that may have utility in modulating the dopamine dysfunction; deficits respond to both lithium and antipsychotics (Beaulieu et al., 2004; Gainetdinov et al., 1999; Ralph et al., 2001).
Adult (>P70) GluN1-knockdown (GluN1KD—F1: C571Bl/6J x 129S1/SvlmJ) and DAT-knockout (DATKO—C57Bl/6J), balanced for sex, were treated with either vehicle (1:1:18-Tween80:95% ethanol:saline) or a novel CB1 negative allosteric modulator (CB1 NAM), ABM300, at 10 mg/kg, was tested in behavioural assays, and compared to littermate controls. Locomotor, stereotypic movements and vertical activity were tested, along with anxiety/mania and sensorimotor gating behaviours. All data were analyzed with two- or three-way ANOVA, as appropriate, and corrected for multiple comparisons.
Classically, locomotor output has been used as a gold standard for the measure of dopamine system dysfunction. The role of dopamine in movement control is well defined and, in its simplest forms, testing for hyperactivity is based on the premise that enhanced dopaminergic activity in rodents leads to enhanced motor activity (van den Buuse et al., 2010). Locomotor, stereotypic and vertical activity was recorded using digital activity monitors, quantifying horizontal and vertical activity, along with repetitive behaviour, via infrared beam breaks. GluN1 KD and DATKO display basal hyperactivity, with increases in stereotypic behaviours which can be ameliorated with antipsychotics (Peleg-Raibstein et al., 2008).

[1] = Rat liver microsomal stability assay; format: in vitro ADME; details: pooled rat liver microsomes 0.5 mg/mL, 3 μM compound, NADPH, 37° C., 45 min
Protocol: Metabolic stability of indole-oxadiazole derivatives of Formula I was measured by determination of the rate of compound disappearance when incubated in the presence of human or rat liver microsomes. Liver microsomes are prepared from the endoplasmic reticulum of hepatocytes and are the primary source of the most important enzymes (cytochrome P450) involved in drug metabolism. Study of drug stability in the presence of liver microsomes is accepted as a valuable model permitting rapid prediction of in vivo drug stability.
Human and rat liver microsomes were obtained from commercial sources. Test compounds (3 μM) were incubated with pooled liver microsomes (male and female). Samples were incubated for a 45 minute period and removed at 5 time points and test compounds were analysed by LC-MS/MS.
Microsomes (final protein concentration 0.5 mg/mL), 0.1 M phosphate buffer pH 7.4, and test compound (final concentration 3 μM; diluted from 10 mM stock solution to give a final DMSO concentration of 0.25%) were incubated at 37° C. prior to the addition of NADPH (final concentration 1 mM) to initiate the reaction. The final incubation volume was 25 μL. A control incubation was included for each compound tested, where 0.1 M phosphate buffer pH 7.4 was added instead of NADPH. The control compounds testosterone and 7-hydroxycoumarin were included in each experiment and all incubations were performed singularly for each compound.
Each compound was incubated for 0, 5, 15, 30, and 45 minutes. The control (minus NADPH) was incubated for 45 minutes only. The reactions were stopped by the addition of 50 μL methanol containing internal standard at the appropriate time points. The incubation plates were centrifuged at 2500 rpm for 20 minutes at 4° C. to precipitate the protein.
Following protein precipitation, the sample supernatants were combined in cassettes of up to 4 compounds and analysed using standard LC-MS/MS conditions.
From a plot of the natural logarithm of the peak area ratio (i.e., the ratio of compound peak area:internal standard peak area) against time, the gradient of the line was determined. Subsequently, half-life and intrinsic clearance were calculated using the equations below:
Eliminated rate constant (k)=(−gradient).

cannabinoid CB1 receptor = biological target: T1, cannabinoid CB1 receptor (Homo sapiens, UniProt P21554); test: PathHunter β-Arrestin assay (allosteric inhibition of agonist Emax); format: cell-based; details: FIG. 1; agonist CP55,940; calculated by GraphPad Prism; read-out: IC50 for reduction of Emax of CP55,940
T1 construct: host or cells: HEK293 CB1 β-arrestin cells
T1 sequence (P21554 whole entry): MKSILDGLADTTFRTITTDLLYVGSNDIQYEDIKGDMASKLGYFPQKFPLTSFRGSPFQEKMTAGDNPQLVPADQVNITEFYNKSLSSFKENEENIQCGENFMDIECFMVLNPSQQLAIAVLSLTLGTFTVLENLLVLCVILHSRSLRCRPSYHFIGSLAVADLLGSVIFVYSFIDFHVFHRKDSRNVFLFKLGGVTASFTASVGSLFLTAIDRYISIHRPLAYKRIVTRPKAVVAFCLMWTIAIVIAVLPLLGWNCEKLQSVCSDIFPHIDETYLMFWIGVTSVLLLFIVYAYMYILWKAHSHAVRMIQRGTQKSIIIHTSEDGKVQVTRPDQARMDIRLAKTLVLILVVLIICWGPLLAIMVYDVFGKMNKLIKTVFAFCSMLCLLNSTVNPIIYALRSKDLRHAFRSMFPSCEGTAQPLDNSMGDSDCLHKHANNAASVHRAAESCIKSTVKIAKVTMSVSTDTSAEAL

## CCc1c(-c2nnc(Nc3ccccc3)o2)[nH]c2ccc(Cl)cc12 [ABM300, 5-(5-Chloro-3-ethyl-1H-indol-2-yl)-N-phenyl-1,3,4-oxadiazol-2-amine]
other
  melting point: 252 to 254 °C
DATKO mice; DATKO mice
  effect on hyperactivity (in words): reduces hyperactivity
DATKO mice; DATKO mice, open field
  effect on abnormal stereotypic behaviours (in words): reduces abnormal stereotypic behaviours
  effect on abnormal vertical exploration (risk-taking behaviour) (in words): reduces abnormal vertical exploration
  Locomotor Activity (total distance traveled): 13120 ± 1961 cm
  Stereotypy (total stereotypic movements): 900 ± 96
  Vertical Activity (total): 530 ± 101
DATKO mice; WT (C57Bl/6J) mice, open field
  Locomotor Activity (total distance traveled): 1851 ± 378 cm
  Stereotypy (total stereotypic movements): 533 ± 69
  Vertical Activity (total): 262 ± 69
[1]
  Microsomal stability T1/2 Rat: 1.83 h
Cannabinoid CB1 receptor
  IC50: 1 nM
